# Experimental data: patent US20200360331A1, “COMPOSITIONS COMPRISING 15-HEPE AND/OR 15-HETrE AND METHODS OF TREATING OR PREVENTING CARDIOMETABOLIC DISEASE, METABOLIC SYNDROME, AND/OR RELATED DISEASES” (Afimmune Limited, priority 2019, published 2020)
# Legend:
# NAFLD patients [1] = test: Phase IIa NAFLD study: lipid profile; type: in vivo, human; conditions: for Triglycerides (median placebo-corrected % change from baseline): 2 g
# Description: (§1) Exploratory analysis: The exploratory analysis included analysis of lipid and metabolic parameters including total cholesterol, triglycerides, very low-density lipoprotein cholesterol (VLDL-C), low density lipoprotein cholesterol (LDL-C), high density lipoprotein cholesterol (HDL-C), non-high-density lipoprotein cholesterol (non-HDL-C), remnant-like particle cholesterol (RLP-C), fasting glucose, insulin, free fatty acids and hemoglobin A1C (HbA1C). Additional exploratory analysis included high throughput lipidomics and proteomics.
# The study was planned to include 96 evaluable patients with 32 patients randomized per treatment group.
# Clinical Laboratory Safety Tests: Safety tests were performed for hematology, serum biochemistry, coagulation, lipid profile, and urinalysis: Blood and urine samples were taken as per the Study Flow Chart in Table 19 for routine hematology, serum biochemistry, coagulation and urinalysis tests, along with a Lipid Profile. All samples were analyzed in the central laboratory. All subjects were fasted for a minimum of 8 hours prior to blood sampling. If subjects had not fasted for a minimum of 8 hours, the duration of fasting time was recorded, and subjects encouraged to fast appropriately for the next clinical visit. • Hematology: Full blood count to include red cell count, hemoglobin, hematocrit, white cell count, differential white cell count, platelet count and reticulocyte count. • Serum biochemistry: Urea (blood urea nitrogen; BUN), creatinine, uric acid, total bilirubin, Indirect and Direct Bilirubin, sodium, bicarbonate potassium, phosphorus, calcium chloride, alkaline phosphatase (ALP), aspartate aminotransferase (AST), alanine aminotransferase (ALT), ALT/AST ratio, lactate dehydrogenase (LDH), creatine phosphokinase (CPK), albumin, total protein, cholesterol, triglycerides, glucose, C-reactive protein (CRP). • Coagulation: prothrombin time (PT), international normalized ratio (INR) and activated partial […]. • Lipid Profile: LDL, HDL, and VLDL-C. • Urinalysis: pH, protein, glucose, blood, ketones, leukocytes, leukocyte esterase, bilirubin, specific gravity, urobilinogen and nitrate. Reflex micro if blood, protein, leukocyte esterase or nitrate/nitrite are present.
# [2] = system: TβR-II (type II TGF-β receptor); test: Sucrose density gradient analysis in Mv1Lu cells, TβR-II; type: cell-based, mink
# Protocol: (§2) Sucrose gradient ultracentrifugation and confocal microscopy were used to identify 15-HEPE induced microdomain translocation of TGF-β receptors by sucrose. Sucrose density gradient analysis of TGF-β receptors was conducted in the plasma membranes of Mv1Lu cells (mink lung epithelial cell) treated with 100 μM of 15-HEPE and an equal volume of DMSO (dimethyl sulfoxide) at 37° C. for 0, 1, 4, and 24 hours, and the cell lysates from these treated cells were subjected to sucrose density gradient ultracentrifugation. The sucrose gradient fractions were then analyzed by Western blot analysis using anti-TβR-I (type I TGF-β receptor), anti-TβR-II (type II TGF-β receptor), anti-TβR-III (type III TGF-β receptor, betaglycan), anti-EGFR (epidermal growth factor receptor), and anti-caveolin-1 antibodies. The lipid raft/caveolae, and non-lipid raft microdomain localization of TβR-I, TβR-II, TβR-III, EGFR and caveolin-1 in the plasma membrane of untreated cells or cells treated with 15-HEPE were assessed to determine the effects of 15-HEPE on the membrane microdomain localization of the TGF-β receptors.
# A 15-HEPE sucrose density gradient analysis of TGF-β receptors was conducted in the plasma membranes of mink lung epithelial cell (Mv1 Lu) cells treated with 100 μM of 15-HEPE and an equal volume of dimethyl sulfoxide (DMSO) at 37° C. for 0, 1, 4, and 24 hours, and the cell lysates from these treated cells were subjected to sucrose density gradient ultracentrifugation. The sucrose gradient fractions were then analyzed by Western blot analysis using anti-TβR-I (type I TGF-β receptor—FIG. 18C), anti-TβR-II (type II TGF-β receptor—FIG. 18D), anti-TβR-III (type III TGF-β receptor, betaglycan—FIG. 18E), anti-EGFR (epidermal growth factor receptor—FIG. 18F), and anti-caveolin-1 antibodies (FIG. 18G). Fractions 4 to 5 contained lipid rafts/caveolae whereas fractions 7-10 were non-lipid raft fractions. […] Stars (★) indicate 15-HEPE increased abundance of TβR-I (24 hours) in the fraction in comparison with that of the control and shorter treatment durations (FIG. 18C). […] The triangles (▾) indicate translocation and decreased abundance of TβR-II in the fraction in comparison with control cells (FIG. 18D).
# TIMP-1 = test: UUO study: quantitative RT-PCR of kidney, TIMP-1; type: in vivo, C57BL/6 mice; conditions: UUO mice kidney
# Protocol: Quantitative RT-PCR: Total ribonucleic acid (RNA) was extracted from kidney samples using RNAiso (Takara Bio, Japan) according to the manufacturer's instructions. One μg of RNA was reverse-transcribed using a reaction mixture containing […] (mM) of magnesium chloride (MgCl2) (F. Hoffmann-La Roche, Switzerland), 40 U RNase inhibitor (Toyobo, Japan), 0.5 mM dNTP (Promega, USA), 6.28 μM random hexamer (Promega), 5× first strand buffer (Promega), 10 mM dithiothreitol (Invitrogen, USA) and 200 U MMLV-RT (Invitrogen) in a final volume of 20 μL. The reaction was carried out for 1 hour at 37° C., followed by 5 minutes at 99° C. Real-time PCR was performed using real-time PCR DICE and TB Green™ Premix Ex Taq™ II (Takara Bio). To calculate the relative […] (mRNA) expression level, the expression of each gene (e.g., α-SMA, TIMP-1, TGF-β and Collagen Type 1) was normalized to that of reference gene 36B4 (gene symbol: Rplp0). Information regarding the PCR-primer sets and the plate layout are described in Tables 1 and 2.
# NAFLD patients [3] = test: Phase IIa NAFLD study: proteomics of blood samples; type: in vivo, human
# Description: as §1, with “The study was planned to include 96 evaluable patients with 32 patients randomized per treatment group. […] Exploratory” for “Exploratory”
# caveolin-1 = test: Sucrose density gradient analysis in Mv1Lu cells, caveolin-1; type: cell-based, mink; conditions: 100 μM, 0, 1, 4 and 24 hours
# Protocol: as §2, with “receptors. […]” for “receptors.”
smiles,measurement,setting,value
"CC/C=C\CC(O)/C=C/C=C\C/C=C\C/C=C\CCCC(=O)O (stereo not shown) [DS102, 15-hydroxy-eicosa-5Z,8Z,11Z,13E,17Z-pentaenoic acid]",Triglycerides (median placebo-corrected % change from baseline),"NAFLD patients [1]; Week 16, Full Analysis Set",−40.2%
same,Triglycerides (median placebo-corrected % change from baseline),"NAFLD patients [1]; Week 16, Subgroup: High Triglycerides (>200 mg/dL)",−20.4%
same,Triglycerides (median placebo-corrected % change from baseline),"NAFLD patients [1]; Week 16, Subgroup: Triglycerides > Upper Limit Normal (>150 mg/dL)",−39.0%
same,triglyceride levels,"NAFLD patients [1]; NAFLD patients, Week 16",lowered
same,"lipid profile (total cholesterol, VLDL-C, non-HDL-C, RLP cholesterol, triglyceride levels)","NAFLD patients [1]; Week 16, safety analysis set (SAS)",significantly improved
same,TβR-II translocation,"[2]; Mv1Lu cells, 100 μM, 1 to 4 hours",induced TβR-II translocation
same,TβR-II degradation,"[2]; Mv1Lu cells, 100 μM, 24 hours",induce degradation
same,translocation and degradation of type II TGF-β receptors,"[2]; summary, free acid or ethyl ester form",induced translocation and degradation of type II TGF-β receptors
same,TIMP-1 gene expression,"TIMP-1; relative mRNA normalized to 36B4, 50 mg/kg PO QD Day 0-13",138.30 ± 30.39
same,TIMP-1 gene expression,"TIMP-1; relative mRNA normalized to 36B4, 500 mg/kg PO QD Day 0-13",124.80 ± 28.60
same,TR protein,NAFLD patients [3]; 1 g,significant reductions
same,"NASH drug development targets CCR2/5 signaling, Galectin3, AOC3",NAFLD patients [3]; 2 g,decreased
same,"number of markers (inflammation, fibrosis, lipid metabolism, apoptosis, chemotaxis) significantly downregulated","NAFLD patients [3]; 2 g, panel of greater than 350 protein biomarkers",over 150
same,inflammatory and pro-fibrotic proteins (protein expression),"NAFLD patients [3]; 2 g, Bonferroni: PAI-1, TIMP-1, DPP4, TLT2, CCL16, MCP-1, SAA4, PI3/Elafin, TR, LILRB1, TNRSF11A, linear model: TLT2, AOC3, PRSS2",decreased
same,expression of multiple circulating chemokines,NAFLD patients [3]; NAFLD patients,decreased
same,expression of multiple proteins associated with increased cardiovascular risk,NAFLD patients [3]; NAFLD patients,decreased
same,expression of multiple tumor necrosis factor receptor superfamily members,NAFLD patients [3]; NAFLD patients,decreased
same,expression of multiple vascular adhesion molecules,NAFLD patients [3]; NAFLD patients,decreased
same,localization and abundance of caveolin-1,caveolin-1,did not change the localization and abundance
